# According to patent US20210062263A1, “A CLINICAL […]” (priority 2016, published 2021):
# Tests used:
# [1] = Serum testosterone levels (RIA) in wounded male mice with testosterone implants; assay type: in vivo; details: for Serum Testosterone: Castrated + T males
# Method: Six to nine week-old male Balb/cJASMU mice obtained from the Monash University Animal Services, Monash University, Clayton, Victoria, Australia, were housed prior to and during experiments under the following conditions: temperature range 21° C. to 24° C.; light cycle 12 hours light: 12 hours dark. All mice had access to food and water ad libitum.
# Six week-old male mice were castrated under anesthesia three weeks prior to the studies on wound healing. The testes were gently pushed through the inguinal canal into the abdominal cavity and exposed through a small (0.5 cm) ventral midline abdominal incision. Each testis was gently dissected from its epididymis and removed after ligation of the testicular vasculature. All incisions were closed using two interrupted 5/0 silk sutures (Johnson & Johnson Medical, NSW, Australia).
# (§1) Implants were prepared by cutting medical grade Silastic (polydimethylsiloxane) tubing (1.5 mm inner diameter, 2.3 mm outer diameter, Aunet Pty Ltd, WA, Australia) to the desired length (1 cm long) and sealing one end with Multi-Purpose Sealant (Dow Corning RTV Sealant). After 24 hours each tube was packed with either crystalline testosterone (Sigma #T-1500) or left empty (vehicle implant). The open end was then sealed and implants were allowed to dry for at least 24 hours prior to surgical implantation. The implant size was considered to be the length of tubing containing testosterone. Prior to subcutaneous insertion, implants were sterilized in absolute ethanol for 10 minutes which also removed any androgen adhering to its external surface. Each testosterone or vehicle implant was inserted subcutaneously via a 5-mm nape incision in intact and castrated male mice three weeks before the wound healing experiments and the incision site was closed with 5/0 sutures.
# (§2) Under anesthesia, the dorsal flanks of each 9 weeks old mouse (n=6/group) were carefully shaved and cleansed with 70% v/v ethanol. To create wounds, full-thickness, parasagittal linear incisions (1 cm long) were made through the skin and underlying the panniculus carnosus muscle on each flank and each wound was closed using two 5/0 silk sutures placed 3 mm from each end of the wound. Post operatively, all animals received analgesia to minimize pain, were allowed to recover on a heated pad and then housed in groups of four animals per cage. Incisions were examined and assessed on days 3, 5, 7 and post-wounding.
# (§3) Blood samples were collected between 10:00 and 10:30 am by cardiac puncture at different time points (0d, 3d, 5d, 7d or 14d) according to the experimental protocol. The samples were allowed to coagulate for 30 minutes then centrifuged at 10,000 g for 10 minutes to collect serum which was stored at −20° C. until assayed.
# Serum testosterone levels were measured using a direct radioimmunoassay (RIA) testosterone kit (IM1119—Immunotech, Marseilles, France) according to the manufacturer's instructions, using I^125-labeled testosterone as a radioactive tracer. The antibody used in the immunoassay is highly specific for testosterone with extremely low cross-reactivity (<0.75%) for related molecules such as 5a-dihydrotestosterone or […]. The assay sensitivity for serum testosterone was 15.63 pg/ml and the intra-assay variation was 7.9%. All samples from one experiment were measured in the same assay.
# activin A = experiment: Serum activin A levels (ELISA) in wounded male mice; assay type: in vivo
# Method: as §1, §2, §3
# Activin A levels were measured in serum and skin using a specific ELISA and human recombinant activin A as a standard, according to manufacturer's instructions (Oxford Bioinnovations, Cherwell, Oxfordshire, UK) [Knight et al. (1996) J Endocrinol 148(2):267-279]. The assay sensitivity for serum activin A was 11 pg/ml, with an intra-assay variation of 4.6-7.5% and an inter-assay variation of 10.6%.
# dorsal skin wound = experiment: Macroscopic evaluation of dorsal skin wounds; assay type: in vivo, mice
# Method: as §1
# Under anesthesia, the dorsal flanks of each 9 weeks old mouse (n=6/group) were carefully shaved and cleansed with 70% v/v ethanol. To create wounds, full-thickness, parasagittal linear incisions (1 cm long) were made through the skin and underlying the panniculus carnosus muscle on each flank and each wound was closed using two 5/0 silk sutures placed 3 mm from each end of the wound. […] Incisions were examined and assessed on days 3, 5, 7 and post-wounding.
# Digital images of each dorsal skin wound were obtained with a standardized focal distance, aperture and exposure time using a Nikon D5000 camera (Nikon, Tokyo, Japan) immediately after the initial incision and at 3, 5, 7 and 14 days post-wounding. Wound areas were measured within the wound margins and the pixel areas were calculated using Adobe Photoshop CS5 (version 12.0, Adobe Systems Inc). The area of erythema was measured in all groups at 3 days and 5 days post-wounding and the area of the wound was measured in all groups at all time-points.
# CD45+ cells = experiment: Immunohistochemical analysis of leukocyte infiltration (CD45+ cells); assay type: in vivo, mice
# Text: CD45, also known as leukocyte common antigen (LCA), was used to detect infiltrating leukocytes as a marker of inflammation (Hermiston et al. (2003) Annul Rev Immunol 21:107-137). Five micron thick sections were cut and placed on Menzel-Glaser Polysine (Registered Trade Mark) slides (Thermo Scientific), air-dried and stored at room temperature. Slides were stained using an automated system (DAKO Autostainer Plus), at room temperature; sections were rehydrated and antigen retrieved with the Dako buffers citrate pH6.1. Slides were peroxidase-blocked in 3% v/v hydrogen peroxide (H2O2) in methanol for 10 mins. They were then blocked with CAS-Block (Invitrogen, CA, USA) for 10 minutes, and then incubated with primary antibody (CD45 biotinylated rat anti-mouse antibody, 1:200) for 20 min. Vectastain ABC kit (Vector Labs, Burlingame, Calif.) was subsequently applied for 30 minutes and further colorimetric detection was completed with diaminobenzidine (DAB) for 5 minutes. Sections were counterstained with haematoxylin and slides coverslipped under DePeX.
# Leukocyte infiltration was assessed by calculating the average number of CD45+ cells in four random high-power fields (HPF) per tissue section from each group. Data presented reflect the mean total cell count per field from the wound area at days 3 and 5 post-wounding.
compound,measurement,setting,value
C[C@]12CC[C@H]3[C@@H](CCC4=CC(=O)CC[C@@]43C)[C@@H]1CC[C@@H]2O [testosterone],Serum Testosterone,[1]; 0 d,5.7 ± 0.8 ng/mL
same,Serum Testosterone,[1]; 3 d,5.4 ± 0.5 ng/mL
same,Serum Testosterone,[1]; 5 d,5.9 ± 0.4 ng/mL
same,Serum Testosterone,[1]; 7 d,5.2 ± 0.5 ng/mL
same,Serum Testosterone,[1]; 14 d,4.5 ± 0.1 ng/mL
same,serum testosterone levels (in words),"[1]; castrated males, testosterone replacement",back to control levels
same,concentration at 0 d,"[1]; male, Balb/cJASMU, mouse, serum, subcutaneous, 1 cm Silastic implant packed with crystalline testosterone, Intact + T males, 0 d",5.3 ± 0.4 ng/mL
same,concentration at 3 d,"[1]; male, Balb/cJASMU, mouse, serum, subcutaneous, 1 cm Silastic implant packed with crystalline testosterone, Intact + T males, 3 d",5.9 ± 0.4 ng/mL
same,concentration at 5 d,"[1]; male, Balb/cJASMU, mouse, serum, subcutaneous, 1 cm Silastic implant packed with crystalline testosterone, Intact + T males, 5 d",7.8 ± 0.9 ng/mL
same,concentration at 7 d,"[1]; male, Balb/cJASMU, mouse, serum, subcutaneous, 1 cm Silastic implant packed with crystalline testosterone, Intact + T males, 7 d",6.7 ± 0.4 ng/mL
same,concentration at 14 d,"[1]; male, Balb/cJASMU, mouse, serum, subcutaneous, 1 cm Silastic implant packed with crystalline testosterone, Intact + T males, 14 d",6.3 ± 0.3 ng/mL
same,Serum Activin A,"activin A; Castrated + T males, 0 d",80.2 ± 7.8 pg/mL
same,Serum Activin A,"activin A; Castrated + T males, 3 d",65.4 ± 5.8 pg/mL
same,Serum Activin A,"activin A; Castrated + T males, 5 d",54.9 ± 7.7 pg/mL
same,Serum Activin A,"activin A; Castrated + T males, 7 d",83.8 ± 7.3 pg/mL
same,Serum Activin A,"activin A; Castrated + T males, 14 d",93 ± 7.7 pg/mL
same,Serum Activin A,"activin A; Intact + T males, 0 d",65.4 ± 6.8 pg/mL
same,Serum Activin A,"activin A; Intact + T males, 3 d",85.2 ± 5 pg/mL
same,Serum Activin A,"activin A; Intact + T males, 5 d",74.9 ± 6.9 pg/mL
same,Serum Activin A,"activin A; Intact + T males, 7 d",92.1 ± 3.8 pg/mL
same,Serum Activin A,"activin A; Intact + T males, 14 d",74.6 ± 3.5 pg/mL
same,serum activin levels (in words),"activin A; castrated males, testosterone replacement vs castrated+Vh, days 3 and 5 post wounding",decreased serum activin levels
same,wound area,"dorsal skin wound; castrated animals treated with testosterone vs vehicle, days 3 and 5 post-wounding",increased wound area
same,scabs on wound surface,"dorsal skin wound; castrated males, testosterone replaced",scabs were observed at both days 3 and 5
same,area of erythema,"dorsal skin wound; castrated+T males, day 3 post-wounding",0.42±0.03 cm2
same,number of CD45+ cells,"CD45+ cells; castrated group with testosterone replaced vs castrated group, days 3 and 5 post-wounding",significantly increased
same,leukocyte migration and infiltration to the wound site (summary),CD45+ cells; male mice,increased migration and infiltration of leukocytes
